Data: US20140096445A1, “METHOD OF CULTIVATION IN WATER DEFICIT CONDITIONS” (SYNGENTA PARTICIPATIONS AG, priority 2011, published 2014)

Tested on: corn
Assay: Lateral-move sprinkler irrigation field study, 112 day maturity corn hybrid, Examples 24-25
Format: in vivo
Settings: 250 gai/ha, 60% irrigated deficit
Description: Testing Procedure: A sprinkler irrigation field study was conducted on a deep silt loam soil using a 112 day maturity corn hybrid. This trial was conducted to quantify the impact of azoxystrobin and trinexapac-ethyl on grain yield, and water productivity of corn under limited (deficit) and fully-irrigated settings. The study utilized a lateral-move sprinkler irrigation (LMS) system. The study was replicated three times in an […]. Each main plot was approximately 185 sq. meters. Irrigation control panels, chemical injection pumps, and filters were housed at the irrigation well house to manage irrigation and chemigation events.
Soil water status was monitored throughout the growing season using soil moisture sensors. Corn seed was planted with a precision planter at a depth of 2 inches and rows spaced at 30 inches. The planting population was 30,000 seeds per acre. Testing parameters, and irrigation levels were conducted according to the Kansas State University experimental procedure [see e.g., (1) Lamm, F. R., A. J. Schlegel, and G. A. Clark. 2003. Development of a Best Management Practice for Nitrogen Fertigation of Corn Using SDI. Appl. Engr in Agric. and (2) Lamm, F. R., H. L. Manges, L. R. Stone, A. H. Khan, and D. H. Rogers. 1995. Water requirement of subsurface drip-irrigated corn in northwest Kansas. Trans. ASAE, 38(2):441-448.]. Moisture levels, irrigation levels, evapotranspiration, and plant health were measured throughout the growing season. Climatic variables were measured (air temperature, rainfall, solar and net radiation, relative humidity, rainfall, wind speed and direction) throughout the season. Irrigation for the fully irrigated treatments was scheduled according to need by a climatic water budget using calculated evapotranspiration as a withdrawal and with rainfall and irrigation as deposits. Irrigation amounts for each event for the fully irrigated plots were generally 0.96 inches for each event. The deficit irrigation treatments were scheduled at approximately 60% of the fully irrigated plots. Volumetric soil water content was measured in one-foot increments to a depth of 8 ft on an approximately weekly basis throughout the crop season to determine total water use. Crop water use was calculated as the sum of irrigation, precipitation and changes in soil water between the initial and final soil water sampling dates. Water productivity (WUE) was calculated as the crop yield divided by the seasonal water use (Water Productivity (WP)=Yield/ETc). […] Crop yield from each replication was recorded after harvest and adjusted to 15% moisture content. Corn yield components of crop grain yield, plants/area, ears/plant, and kernel weight were measured by hand harvesting a representative sample.

## CCOC(=O)C1CC(=O)C(=C(O)C2CC2)C(=O)C1 (stereo not shown) [TXP, trinexapac-ethyl]
  % IWUE Increase over Untr./60% irr.: +5% over
  % Yield Increase over Untr./60% irr.: +3.5% over
  IWUE (water productivity): 484 lbs/acre inch
  Yield: 209 Bu./acre
